± gives the expanded uncertainty stated by the source.
Assay: molar enthalpy of vaporization or sublimation
Details: 298.15 K, Liquid

SMILES | molar enthalpy (Vacuum sublimation drop method) | molar enthalpy (Flow calorimetry)
CC(=O)c1sccc1C [2-acetyl-3-methylthiophene] | 13.6 ± 1.15 kcal/mol | –
CC(=O)c1cc(C)cs1 [2-acetyl-4-methylthiophene] | – | 15.1 ± 1.24 kcal/mol
CC(=O)c1ccc(C)s1 [2-acetyl-5-methylthiophene] | – | 14.8 ± 1.24 kcal/mol

— the NIST ThermoML archive (doi:10.1016/j.jct.2008.03.008)
